According to PubChem BioAssay (NCI):
“And” between values parts separate entries of the source, which are not always exact repeats. Equal values may be shown once.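 How tested: cells in 96-well plates exposed to compound for 48 hours at five concentrations. At the GI50, growth is halved. TGI: total growth inhibition.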

How the values were obtained:
Assay in all cases: NCI tumour cell line growth inhibition, 48 h
[1] = test system: HOP-92 NSCLC
[2] = test system: SK-MEL-2 melanoma
[3] = test system: SK-OV-3 ovarian
[4] = test system: RPMI-8226 leukemia
[5] = test system: 786-0 renal
[6] = test system: HCT-116 colon
[7] = test system: SK-MEL-28 melanoma
[8] = test system: M14 melanoma
[9] = test system: SW-620 colon
[10] = test system: HCT-15 colon

SMILES	TGI [1]	TGI [2]	TGI [3]	TGI [4]	TGI [5] [µM]	TGI [6]	TGI [7]	TGI [8]	TGI [9]	TGI [10]	GI50 [1]	GI50 [2] [µM]	GI50 [3] [µM]	GI50 [5] [µM]	GI50 [6] [µM]	GI50 [7] [µM]	GI50 [8] [µM]	GI50 [10]	GI50 [4]	GI50 [9] [µM]
CCOc1ccc(N=Nc2c(-c3ccccc3)nn(C(=O)CC(=O)Nc3ccccc3Cl)c2-c2ccccc2)cc1	> 100 µM	> 100 µM	> 100 µM	> 100 µM	> 100	> 100 µM	> 100 µM	> 100 µM	> 100 µM											
CCOC(=O)C(=O)Nc1nc2ccc(OC)cc2s1	> 100 µM	> 100 µM	> 100 µM	> 100 µM	> 100		> 100 µM	> 100 µM	> 100 µM	> 100 µM										
Cc1cccc(NC(=O)CSc2nnc(-c3ccc(N=Cc4ccc(Cl)cc4)cc3)o2)c1		> 100 µM	> 100 µM	> 100 µM	> 100	> 100 µM	> 100 µM	> 100 µM	> 100 µM	> 100 µM										
O=C(N[C@H]1CC2(C=C(I)C(=O)C(I)=C2)OC1=O)OCc1ccccc1			> 100 µM	> 100 µM	35.2	29.6 µM	33.5 µM	31.2 µM		44.2 µM										
Cc1ccc(-n2cc(/C(N)=N/O)c3ccccc3c2=O)cc1			> 100 µM	> 100 µM	> 100	> 100 µM	> 100 µM	> 100 µM	> 100 µM	> 100 µM										
CC1(C)N=C(N)N=C(N)N1c1ccc(CCCCCCc2ccc(S(=O)(=O)F)cc2)cc1	3.15 µM	30.2 µM	23.3 µM		16.5	15.3 µM	37.7 µM	28.7 µM	4.44 µM	20.9 µM										
Cc1cc2nc3c(C(OC4OC(CO)C(O)C(O)C4O)C(O)CO)nn(-c4ccc(F)cc4)c3nc2cc1C (stereo not given)			> 100 µM	> 100 µM	> 100	> 100 µM	> 100 µM	> 100 µM		> 100 µM										
C=C(c1ccc(C(=O)NCCCn2ccnc2)cc1)c1cc2c(cc1C)C(C)(C)CCC2(C)C	7.26 µM	7.33 µM	5.59 µM		5.45	1.79 µM	6.38 µM	2.04 µM		17 µM	1.62 µM	2.71	2.09	1.94	0.0398	1.71	0.0627	0.118 µM		
CC(C)(C)OC(=O)CC(S(=O)(=O)c1ccccc1)S(=O)(=O)c1ccccc1		36.2 µM		19.7 µM	27.4	2.78 µM	25.6 µM	22.7 µM	3.17 µM	3.71 µM		17		13.9	1.46	12.9	10.3	1.87 µM	3.49 µM	1.64
c1ccc(-c2nc3ccccc3[nH]2)c(OCCCCCOc2ccccc2-c2nc3ccccc3[nH]2)c1	14.7 µM	24.6 µM	34 µM		35.3	3.24 µM	14 µM	44.1 µM	12.9 µM	18.4 µM	2.55 µM	8.96	14.2	15.9	1.64	3.07	13.4	4.64 µM		3.18
COc1ccc(N=C2C(=O)Nc3ccc(Br)cc32)cc1	69 µM		75.3 µM	25.2 µM	43.6	35.2 µM	84.6 µM	37.2 µM	63.8 µM	44 µM										
O=C(Nc1c(Cl)cc([N+](=O)[O-])cc1Cl)C(=O)C(C(=O)c1ccncc1)C1OC(=O)c2ccccc21 (stereo not given)	> 100 µM		> 100 µM	> 100 µM	> 100	> 100 µM	> 100 µM	> 100 µM	> 100 µM	> 100 µM										
Cc1c(C(=O)/C=C/c2ccc3c(c2)OCO3)[n+](=O)c2ccccc2n1[O-]	69.7 µM		51.2 µM	69.3 µM	> 100	75.1 µM	> 100 µM	> 100 µM	> 100 µM											
Clc1ccc(/C=C/c2csnn2)cc1	> 100 µM	> 100 µM	> 100 µM		> 100	> 100 µM	> 100 µM	> 100 µM	> 100 µM	> 100 µM										
COc1cc([N+](=O)[O-])c(S(=O)(=O)O)cc1-[n+]1nc(C(=O)Nc2ccccc2)nn1-c1ccc([N+](=O)[O-])c(S(=O)(=O)[O-])c1		> 100 µM	> 100 µM	> 100 µM	> 100	> 100 µM	> 100 µM	> 100 µM	> 100 µM	> 100 µM										
CC(=O)OCCc1cc2ccccc2oc1=O	> 100 µM	> 100 µM		> 100 µM	> 100	> 100 µM	> 100 µM	> 100 µM	> 100 µM	> 100 µM										
O=C(/C=N/O)Nc1cccc(Cl)c1I		> 100 µM	> 100 µM	> 100 µM	> 100	> 100 µM	> 100 µM	> 100 µM	> 100 µM	> 100 µM										
CC[C@]1(O)C[C@@H]2CN(CCc3c([nH]c4ccccc34)[C@@](C(=O)OC)(c3cc4c(cc3OC)N(C)[C@H]3[C@@](O)(C(=O)OC)[C@H](OC(=O)CCCBr)[C@]5(CC)C=CCN6CC[C@]43[C@@H]65)C2)C1	3.53 µM	> 100 µM	> 22.2 µM	0.492 µM	> 33.1	> 32.4 µM		25.9 µM	> 100 µM	> 100 µM	0.0877 µM	0.0331	0.306	0.0535	< 0.01		0.0543	0.12 µM	< 0.01 µM	< 0.0146

SMILES	TGI [1]	TGI [2]	TGI [3]	TGI [4]	TGI [5] [µM]	TGI [6]	TGI [7]	TGI [8]	TGI [9]	TGI [10]	GI50 [1]	GI50 [2] [µM]	GI50 [3] [µM]	GI50 [5] [µM]	GI50 [6] [µM]	GI50 [7] [µM]	GI50 [8] [µM]	GI50 [10]	GI50 [4]	GI50 [9] [µM]
COc1cc2ccc(CC(=O)O)cc2cc1OC		> 100 µM	> 100 µM	> 100 µM	> 100	> 100 µM	> 100 µM	> 100 µM	> 100 µM	> 100 µM										
Cc1ccccc1NC(=O)C(=O)CC(=O)c1sc(-n2nc(-c3ccccc3)cc2-c2ccccc2)nc1C	> 100 µM	> 100 µM	> 100 µM	> 100 µM	> 100	> 100 µM		> 100 µM	> 100 µM	> 100 µM										
C#CCN(CCCOc1ccc(Cl)cc1Cl)CCCSC(=O)CCCCCN1/C(=C\C=C2/CCCC(/C=C/C3=[N+](CCCCCC(=O)[O-])c4ccccc4C3(C)C)=C2Cl)C(C)(C)c2ccccc21	3.53 µM	4.2 µM	8.86 µM		3.5	3.14 µM	2.43 µM	3.36 µM	5.44 µM	21.9 µM	1.57 µM	1.77	2.97	1.78	1.63	0.708	1.61	4.12 µM		1.65
NC(=O)C1C(=O)Oc2cccnc21 (stereo not given)			> 100 µM	> 100 µM	> 100	> 100 µM	> 100 µM	> 100 µM	> 100 µM	> 100 µM										
COc1cc(COC(=O)N(C)[C@@H](Cc2ccccc2)C(=O)O)c([N+](=O)[O-])cc1OC	> 100 µM		> 100 µM	> 100 µM	> 100	> 100 µM		> 100 µM	> 100 µM	> 100 µM										
Cc1ccc(/C=C2\CCCC(C(NO)c3ccc(C)cc3)C2=NO)cc1 (stereo not given)		> 100 µM	> 100 µM	48.8 µM	> 100	> 100 µM	67.7 µM	85.4 µM	> 100 µM	> 100 µM										
O=C(/C=C/c1ccccn1)c1ccccc1	23.6 µM	21 µM	30.5 µM	6.6 µM	10.7	3.77 µM	19.2 µM		4.1 µM	12.9 µM	10.4 µM	8.32	16.8	2.84	1.49	6.09		2.66 µM	2.37 µM	2.02
Cc1cn([C@H]2CN(O)C[C@@H](CO)O2)c(=O)[nH]c1=O		> 100 µM	> 100 µM	> 100 µM	> 100	> 100 µM	> 100 µM	> 100 µM	> 100 µM	> 100 µM										
CN(C)CCC(/C=C/c1ccccc1)=N\Nc1c(F)c(F)c(F)c(F)c1F		> 100 µM	> 100 µM	> 100 µM	> 100	> 100 µM	> 100 µM	> 100 µM	> 100 µM	> 100 µM										
Nc1c([N+](=O)[O-])ncn1C1OC(CO)C(O)C1O (stereo not given)		> 100 µM	> 100 µM	> 100 µM	> 100	> 100 µM	> 100 µM	> 100 µM	> 100 µM	> 100 µM		> 100	> 100	> 100	> 100	> 100	> 100	> 100 µM	> 100 µM	> 100
Nc1nc2c(ncn2C2OC(CO)C(O)C2O)c(=O)[nH]1 (stereo not given)	> 100 µM and 263 µM	> 100 µM and 158 µM	> 100 µM and 263 µM	> 100 µM and 139 µM	> 100	> 100 µM and 201 µM	> 100 µM and 265 µM		> 100 µM and 241 µM	> 100 µM and 191 µM	> 100 µM and 82.5 µM	> 100		> 100	> 100			> 100 µM and 20.7 µM	> 100 µM and 30.8 µM	> 100
Cc1ncc([N+](=O)[O-])n1CCOc1ccc(C(=O)/C=C/c2ccc(C(F)(F)F)cc2)cc1		13.6 µM	15.3 µM	4.37 µM	3.54	3.34 µM	21.9 µM	14.8 µM	4.03 µM	4.09 µM		3.43	4.13	1.87	1.65	10.2	3.85	1.82 µM	1.91 µM	1.76
COc1ccc2cc1Oc1ccc(cc1)CC1c3c(cc(OC)c4c3Oc3cc5c(cc3O4)CCNC5C2)CCN1C (stereo not given)	6.76 µM	3.49 µM and 3.85 µM	15.5 µM and 3.11 µM	4.3 µM and 3.42 µM	3.72	3.32 µM	3.5 µM and 3.54 µM	6.83 µM and 3.25 µM		3.73 µM and 4.31 µM		2.19	1.74	2.17	1.84	1.84	1.73	1.86 µM	1.61 µM	
O=C(CC/C(CC(=O)c1ccc(Cl)cc1)=N\O)Nc1cccc(Cl)c1		> 100 µM	> 100 µM	> 100 µM	> 100		> 100 µM	> 100 µM	> 100 µM	> 100 µM										
COc1cc(C(=O)Nc2ccc(-c3nc4ccccc4[nH]3)cc2)cc(OC)c1OC	24.2 µM	29.5 µM	30.6 µM	30.6 µM	28.6	25.3 µM	28.6 µM		42.8 µM	24.4 µM	6.41 µM	14.5	16.5	11.8	10.7	13.7		6.61 µM	6.35 µM	16.9
CCOC(=O)c1cnc2c(ccc3ncccc32)c1OCC		> 100 µM	> 100 µM		> 100	> 100 µM	> 100 µM	> 100 µM	> 100 µM	> 100 µM										
CC1(C)O[C@@H](CCl)C[C@@H](C#N)O1	> 100 µM	> 100 µM	> 100 µM	> 100 µM	> 100	> 100 µM	> 100 µM	> 100 µM	> 100 µM											
COc1ccc([C@H]2c3[nH]c4ccccc4c3C[C@H]3C(=O)N(CCCCCCC(=O)NO)CC(=O)N23)cc1	24.2 µM	> 33.3 µM	> 33.3 µM		> 33.3	> 33.3 µM	> 33.3 µM	> 33.3 µM	> 33.3 µM	> 33.3 µM	1.38 µM	2.79	3.02	11	1.07	1.29	1.75	9.05 µM		1.03
